# Experimental data published in publication PMC10817170, “Effect of an NHE3 inhibitor in combination with an NPT2b inhibitor on gastrointestinal phosphate absorption in Rodent models” (PLOS ONE, 2024).
# “And” between values parts separate entries of the source, which are not always exact repeats. Equal entries are not always repeated.
# Assays:
# NHE3 = tested on: T1, NHE3; assay: Sodium and phosphate excretion in urine after oral NaH2PO4 bolus in rats; format: in vivo; settings: 4 h urine; for Phosphorus-to-Creatinine / Sodium-to-Creatinine / Total Urinary Phosphorus / Total Urinary Sodium / Urinary-to-Dietary Phosphate / Urinary-to-Dietary Sodium / Urine Volume: NaH2PO4 bolus
# T1 construct: from tissue; host or cells: intestine of living SD rats
# Method: To assess sodium and phosphate absorption in rats, we took advantage of the increase in urinary sodium and phosphate excretion following an oral bolus of sodium phosphate. Thus, an LY3304000 dependent decrease in urinary sodium and phosphate excretion following an oral bolus dose of sodium phosphate is an indirect measurement of the ability of LY3304000 to inhibit sodium and phosphate absorption in intestine. A dosing solution of 3 mg/kg LY3304000 for a 10 mL/kg dose volume was formulated in 1% HEC. The subsequent dosing solutions of 1, 0.3, 0.1, 0.03, 0.01, 0.003, and 0.001 mg/kg LY3304000 were prepared by serial dilutions with 1% HEC. An NaH2PO4 dosing solution at 690 mg/kg with a 20 mL/kg dosing volume was made in sterile water. Male SD rats were fasted for 4 hours with access to water and then orally dosed at 10 mL/kg with 1% HEC vehicle or varying dose of LY3304000 at 0.001, 0.003, 0.01, 0.03, 0.1, 0.3, 1, and 3 mg/kg. In this and subsequent studies where phosphate absorption is measured, a 4 hour fast was used which is less disruptive to the animal’s normal physiology than the 12 hours fast used to measure acute phosphate uptake into plasma. Fifteen minutes later, rats were dosed with either sterile water or NaH2PO4 solution, and then immediately transferred to metabolic cages. Urine samples were collected from the metabolic cages at 4 hours post sterile water or NaH2PO4 dose. The net urine volume was recorded. Urinary sodium, creatinine, and phosphorus (as a measure of phosphate) were determined using a clinical biochemistry analyzer. The urinary sodium-to-creatinine and phosphorus-to-creatinine ratios were calculated and compared between vehicle and LY3304000 treated groups. The ratios of urinary-to-dietary phosphate (measured as phosphorus) and urinary-to-dietary sodium in urine were compared between vehicle and LY3304000 treated groups.
# [1] = tested on: intestinal phosphate absorption; assay: Phosphate absorption in rats: 33P in plasma (15 min) and recovered in gastrointestinal tract (4 h), single agents and combination; format: in vivo; settings: 0.4 mg/kg LY3304000, 10 mg/kg LY3358966 or both
# Method: We also evaluated the effect of LY3304000 and LY3358966 in combination on phosphate absorption in rats by measuring radioactive phosphate recovered in either plasma or the gastrointestinal (GI) tract. In this combination study, two vehicles were used. One is 1% HEC vehicle for making LY3304000 dosing solution, another is 0.46% PVP-VA vehicle contained in LY3358966 SDD. To make the LY3358966 dosing solution, an appropriate amount of LY3358966-SDD was weighed for a 10 mg/kg API dosing solution with 5 mL/kg dosing volume and dissolved in water. To make the LY3304000 dosing solution, an appropriate amount of LY3304000 was weighed for a 0.4 mg/kg dosing solution with 5 mL/kg dosing volume and dissolved in 1% HEC. The Radiolabeled Phosphate Dosing Solutions was made as described above. Following 4-hour fasting with access to water, male SD rats were orally dosed at 10 mL/kg with either two vehicles, an LY3358966 dosing solution and 1% HEC vehicle, an LY3304000 dosing solution and 0.46% PVP-VA vehicle, or an LY3304000 and LY3358966 dosing solutions, combined 1:1 by volume. Fifteen minutes later, Radiolabeled Phosphate Dosing Solution was orally dosed in a 2 mL volume. Fifteen minutes after the radiolabeled phosphate dose, blood was collected by retro orbital bleeding, and plasma was prepared. Radioactivity (dpm) in 20-μL plasma was measured by scintillation counting. The mole amount of phosphate uptake in the plasma was calculated as described above. Four hours post radioactive phosphate dose, the animals were sacrificed by asphyxiation with CO2 followed by cervical dislocation and then the stomach, small intestine, large intestine, and feces were collected and weighed. The tissues and feces were digested in 20 mL or 10 mL of 1 N NaOH, respectively, overnight at 37°C. A 100 μL sample of the homogenates were dispensed into scintillation vials and mixed with 10 mL of Optiphase Supermax scintillation fluid (PerkinElmer), and radioactivity (dpm) was measured by scintillation counting. Very little radioactivity was detected in the feces at 4 hours post radioactive phosphate dose. The percentage of radiolabeled phosphate recovered in the gastrointestinal tissue was defined as radioactivity (dpm) recovered in each fraction compared to the amount of radioactivity (dpm) administered. The mole amount of phosphate uptake into plasma in vehicle and LY3358966 and LY3304000 alone groups were compared to the LY3358966 and LY3304000 combination group using One-way ANOVA with Dunnett’s multiple comparisons. Percent recovery of ^33P phosphate in the rat gastrointestinal tract was analyzed by two-way analysis of variance (ANOVA) in JMP 12.1 to test for additivity of the effects of LY3304000 and LY3358966 on inhibiting phosphate absorption.
smiles,measurement,setting,value
"CN1Cc2c(Cl)cc(Cl)cc2[C@H](c2cccc(S(=O)(=O)NCCOCCOCCN/C(=N\C(N)=O)NCCCCN/C(=N/C(N)=O)NCCOCCOCCNS(=O)(=O)c3cccc([C@@H]4CN(C)Cc5c(Cl)cc(Cl)cc54)c3)c2)C1.Cl.Cl [LY3304000, (Z)-[[4-[[(Z)-N’-carbamoyl-N-[2-[2-[2-[[3-[(4S)-6,8-dichloro-2-methyl-3,4-dihydro-1H-isoquinolin-4-yl]phenyl]sulfonylamino]ethoxy]ethoxy]ethyl]carbamimidoyl]amino]butylamino]-[2-[2-[2-[[3-[(4S)-6,8-dichloro-2-methyl-3,4-dihydro-1H-isoquinolin-4-yl]phenyl]sulfonylamino]ethoxy]ethoxy]ethylamino]methylene]urea dihydrochloride]",Phosphorus-to-Creatinine,NHE3; 0.001 mg/kg po,14 mg/mg
same,Sodium-to-Creatinine,NHE3; 0.001 mg/kg po,10 mg/mg
same,Total Urinary Phosphorus,NHE3; 0.001 mg/kg po,12501 µg
same,Total Urinary Sodium,NHE3; 0.001 mg/kg po,9084 µg
same,Urinary-to-Dietary Phosphate,NHE3; 0.001 mg/kg po,0.337
same,Urinary-to-Dietary Sodium,NHE3; 0.001 mg/kg po,0.326
same,Urine Volume,NHE3; 0.001 mg/kg po,4 mL
same,Phosphorus-to-Creatinine,NHE3; 0.003 mg/kg po,14.1 mg/mg
same,Sodium-to-Creatinine,NHE3; 0.003 mg/kg po,12.2 mg/mg
same,Total Urinary Phosphorus,NHE3; 0.003 mg/kg po,12997 µg
same,Total Urinary Sodium,NHE3; 0.003 mg/kg po,11429 µg
same,Urinary-to-Dietary Phosphate,NHE3; 0.003 mg/kg po,0.350
same,Urinary-to-Dietary Sodium,NHE3; 0.003 mg/kg po,0.413
same,Urine Volume,NHE3; 0.003 mg/kg po,4.6 mL
same,Phosphorus-to-Creatinine,NHE3; 0.01 mg/kg po,15 mg/mg
same,Sodium-to-Creatinine,NHE3; 0.01 mg/kg po,9.8 mg/mg
same,Total Urinary Phosphorus,NHE3; 0.01 mg/kg po,12066 µg
same,Total Urinary Sodium,NHE3; 0.01 mg/kg po,8104 µg
same,Urinary-to-Dietary Phosphate,NHE3; 0.01 mg/kg po,0.320
same,Urinary-to-Dietary Sodium,NHE3; 0.01 mg/kg po,0.290
same,Urine Volume,NHE3; 0.01 mg/kg po,3.8 mL
same,Phosphorus-to-Creatinine,NHE3; 0.03 mg/kg po,13 mg/mg
same,Sodium-to-Creatinine,NHE3; 0.03 mg/kg po,9.8 mg/mg
same,Total Urinary Phosphorus,NHE3; 0.03 mg/kg po,9961 µg
same,Total Urinary Sodium,NHE3; 0.03 mg/kg po,7637 µg
same,Urinary-to-Dietary Phosphate,NHE3; 0.03 mg/kg po,0.268
same,Urinary-to-Dietary Sodium,NHE3; 0.03 mg/kg po,0.276
same,Urine Volume,NHE3; 0.03 mg/kg po,2.7 mL
same,Phosphorus-to-Creatinine,NHE3; 0.1 mg/kg po,12.3 mg/mg
same,Sodium-to-Creatinine,NHE3; 0.1 mg/kg po,5.3 mg/mg
same,Total Urinary Phosphorus,NHE3; 0.1 mg/kg po,7247 µg
same,Total Urinary Sodium,NHE3; 0.1 mg/kg po,2850 µg
same,Urinary-to-Dietary Phosphate,NHE3; 0.1 mg/kg po,0.197
same,Urinary-to-Dietary Sodium,NHE3; 0.1 mg/kg po,0.105
same,Urine Volume,NHE3; 0.1 mg/kg po,1.7 mL
same,Phosphorus-to-Creatinine,NHE3; 0.3 mg/kg po,12 mg/mg
same,Sodium-to-Creatinine,NHE3; 0.3 mg/kg po,2.4 mg/mg
same,Total Urinary Phosphorus,NHE3; 0.3 mg/kg po,6250 µg
same,Total Urinary Sodium,NHE3; 0.3 mg/kg po,1095 µg
same,Urinary-to-Dietary Phosphate,NHE3; 0.3 mg/kg po,0.168
same,Urinary-to-Dietary Sodium,NHE3; 0.3 mg/kg po,0.039
same,Urine Volume,NHE3; 0.3 mg/kg po,1 mL
same,Phosphorus-to-Creatinine,NHE3; 1 mg/kg po,11.3 mg/mg
same,Sodium-to-Creatinine,NHE3; 1 mg/kg po,2.4 mg/mg
same,Total Urinary Phosphorus,NHE3; 1 mg/kg po,7081 µg
same,Total Urinary Sodium,NHE3; 1 mg/kg po,1400 µg
same,Urinary-to-Dietary Phosphate,NHE3; 1 mg/kg po,0.191
same,Urinary-to-Dietary Sodium,NHE3; 1 mg/kg po,0.051
same,Urine Volume,NHE3; 1 mg/kg po,1.4 mL
same,Phosphorus-to-Creatinine,NHE3; 3 mg/kg po,9.5 mg/mg
same,Total Urinary Phosphorus,NHE3; 3 mg/kg po,5346 µg
same,Total Urinary Sodium,NHE3; 3 mg/kg po,612 µg
same,Urinary-to-Dietary Phosphate,NHE3; 3 mg/kg po,0.144
same,Urinary-to-Dietary Sodium,NHE3; 3 mg/kg po,0.022
same,Urine Volume,NHE3; 3 mg/kg po,1 mL
same,Sodium-to-Creatinine,"NHE3; 3 mg/kg po, 3 mg/kg",1.0 ± 0.4 mg/mg and 1 mg/mg
same,"ED50, urinary phosphorus excretion",NHE3; urinary-to-dietary phosphorus,0.041 mg/kg
same,"ED50, urinary sodium excretion",NHE3; urinary-to-dietary sodium,0.058 mg/kg
same,phosphate uptake into plasma,"[1]; 15 min post 33P phosphate, vehicle 166, mean ± SEM, n=8",118 nmol and 118 ± 8 nmol
same,"percentage of radiolabeled phosphate recovered, Feces",[1]; 4 h,<0.1%
same,"percentage of radiolabeled phosphate recovered, Large Intestine",[1]; 4 h,18.16 +/- 2.58%
same,"percentage of radiolabeled phosphate recovered, Small Intestine",[1]; 4 h,8.64 +/- 0.32%
same,"percentage of radiolabeled phosphate recovered, Stomach",[1]; 4 h,3.9 +/- 0.49%
same,"percentage of 33P recovered in GI tract, total","[1]; 4 h post 33P phosphate, stomach, small intestine, large intestine and feces, vehicle 25%",31 ± 7% and 31% and 30.7 +/- 2.43%
same,inhibition at 0.4 mg/kg,"[1]; Rattus norvegicus, 0.25 h, 15 min post 33P phosphate, versus vehicle, read-out: inhibition of phosphate uptake into plasma",29%
